According to patent publication US20040260721A1, “Methods and systems for creation of a coherence database” (priority 2003, published 2004):
“Also recorded” adds a separate entry of the source.

Assays:
Saccharomyces cerevisiae = experiment: Biochemical and gene expression profiling with pathway analysis of yeast treated with fungicidal drugs; type: cell-based; settings: inhibitory dose; three replicate samples per drug; single harvest timepoint
Protocol: An experiment was performed to attempt to characterize four fungicidal drugs: Amphoteracin B, Ketaconazole, Fluconazole, and Posaconazole. Yeast samples (Saccharomyces cerevisiae) were treated with an inhibitory dose of each drug, using three replicate samples per drug, and harvested at a single timepoint. Biochemical profiling and gene expression profiling data were gathered on each yeast sample, and summarized and related to KEGG as described in Example 6.

liver = experiment: Biochemical profiling (LC/MS) of livers from rats dosed with acetaminophen; type: in vivo; settings: rat liver
Protocol: Acetaminophen overdose is one of the leading causes of liver failure. In this experiment, rats were dosed with acetaminophen and livers were harvested across a time course. Two doses of acetaminophen were used (50 mg/kg and 1500 mg/kg), as well as a control group that received no acetaminophen. The harvest times were 6, 18, 24, and 48 hours. Three rats (biological replicates) were in each treatment group, wherein a treatment group is defined as each combination of dose and time. […] Still referring to FIG. 2, the information recorded in data tables 221, 223, and 224 could also be recorded in data tables 218 and 219 (time_summary_set, and tissue_summary_set), thus allowing comparison by time or tissue type.
The resulting liver samples were extracted and analyzed by biochemical profiling (BCP) using LC/MS in both positive and negative modes, yielding a biochemical profile containing intensities on more than 100 compounds. Three technical replicates of each rat liver were analyzed. […]
A summary set was created for each treatment group, and the experimental information associated with that treatment group (treatment, dosage, timepoint, baseline of comparison) was recorded in the coherence database. […] Comparing a treated group to a control group created summaries that were recorded in the treatment_summary_set data table (FIG. 2, table 217) of the coherence database schema. […]

## OC(Cn1cncn1)(Cn1cncn1)c1ccc(F)cc1F [Fluconazole]
Saccharomyces cerevisiae
  comparison of pathway perturbations between treatments: perturbations that were unlike those of Amphoteracin B

## CC[C@@H]([C@H](C)O)n1ncn(-c2ccc(N3CCN(c4ccc(OC[C@@H]5CO[C@@](Cn6cncn6)(c6ccc(F)cc6F)C5)cc4)CC3)cc2)c1=O [Posaconazole]
Saccharomyces cerevisiae
  comparison of pathway perturbations between treatments: behaved most like Fluconazole; also recorded: perturbations that were unlike those of Amphoteracin B

## CC(=O)Nc1ccc(O)cc1 [acetaminophen]
liver; 50 mg/kg and 1500 mg/kg, harvest at 6, 18, 24 and 48 hours
  timepoint with most perturbed compounds (biochemical profile vs matched control): more compounds were perturbed at the 18 hour timepoint than any other
liver; 18 hour timepoint, pathway viewing tool (KEGG)
  pathway showing the primary metabolic disturbance: nitrogen metabolism pathway was most likely the source of the primary metabolic disturbance
